Some results are limits rather than exact numbers.

Series [1] has as its system Bmi-1. Description: Cell Model Assay: Bmi-1 expression in U87-MG. The class given is cell-based. The settings on record: U87-MG (glioblastoma). As for the experimental part: (§1) Using assay conditions known to those skilled in the art, the ability of the compounds described herein to reduce Bmi-1 expression in HT1080 (fibrosarcoma), U87-MG (glioblastoma), T98G (glioblastoma), K562 (chronic myelogenous leukemia) and KG1 (acute myelogenous leukemia) cell lines was tested (at test compound concentrations calculated from the ELISA assay data shown in Example 1) compared to puromycin as a control to provide the EC50 values shown in Table 2. The term “ND” means that data was not determined.

The subject of series [2] is Bmi-1. The series is described as follows: Cell Model Assay: Bmi-1 expression in T98G. It counts as cell-based. The settings on record: T98G (glioblastoma). The protocol:
as §1

In series [3] the test system is Bmi-1. The series is described as follows: In-Vivo Xenograft Model: intratumor Bmi-1 levels by Bmi-1 ELISA. More on the design: species or system nude mice. The settings on record: subcutaneously at 30 or 60 mg/kg/day for ten days, compared to the vehicle control (p<0.002). As for the experimental part:
(§2) HT1080 cells (human fibrosarcoma cells) were implanted subcutaneously in nude mice. After seven days, mice were administered compounds subcutaneously at 30 or 60 mg/kg/day for ten days. The tumors were then excised from mice and homogenized in Tris-HCl buffer containing a cocktail of proteinase inhibitors. Intratumor Bmi-1 levels were subsequently measured using the Bmi-1 ELISA assay of Example 1. Protein concentrations of the homogenates were measured with a Bio-Rad Protein assay kit and intratumor Bmi-1 levels were normalized to the protein concentrations. Treatment with the compound for ten days inhibited tumor growth by 35% as compared to the vehicle-treated control groups. […] Since p27 expression is not regulated by Bmi-1 activity, no changes in the levels of this protein were observed within treated tumors.
In general terms: ELISA stands for enzyme-linked immunosorbent assay.

The test system of series [4] is Bmi-1. Description: Cell Model Assay: Bmi-1 expression in K562. The class given is cell-based. The settings on record: K562 (chronic myelogenous leukemia). As for the experimental part: as §1
Series [5] concerns Bmi-1. Description: Cell Model Assay: Bmi-1 expression in KG1. The class given is cell-based. The settings on record: KG1 (acute myelogenous leukemia). As for the experimental part: as §1
In series [6] the test system is HT1080 cells (human fibrosarcoma cells). The class given is in vivo, nude mice. The protocol: as §2
Series [7] has as its system p27. Description: In-Vivo Xenograft Model: intratumor p27 levels (control). More on the design: species or system nude mice. The settings on record: subcutaneously at 30 or 60 mg/kg/day for ten days. As for the experimental part: as §2
The test system of series [8] is MCL-Jeko. Description: Mantle Cell Lymphoma Assay: cytotoxicity, Jeko. The conditions noted are these: MCL-Jeko, 72 hrs. The class given is cell-based. In short, it runs like this:
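Early-passage (2-4) cells were purified by Ficoll-Histopaque before treatment. Cell concentration and viability were measured on a Vi-Cell counter after harvesting on day 3.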

Series [9] has as its system Bmi-1. The series is described as follows: Western Blot Analysis: Bmi-1 levels in MCL cell lines. The conditions noted are these: MCL cells cultured for 72 hrs, FIG. 2. The class given is cell-based. The protocol: (§3) Western Blot analysis was used to determine cytoplasmic protein levels of Bmi-1 and activation of key executioner proteins (Caspases 3, 7, 8, 9) involved in apoptosis. Protein levels were measured in Bmi-1 inhibitor-treated mantle cell lymphoma cell lines. […] Cells were harvested at each time point, washed with ice-cold PBS, and lysed with 1× lysis buffer (20 mM Tris-HCl (pH 7.5), 150 mM NaCl, 1 mM Na2EDTA, 1 mM EGTA, 1% Triton, 2.5 mM sodium pyrophosphate, 1 mM beta-glycerophosphate, 1 mM Na3VO4, 1 μg/ml leupeptin; Cell Signaling Technology; Danvers, Mass.). Protein concentrations were determined using Pierce BCA protein assay (Thermo Scientific; Rockford, Ill.). Electrophoresis of cell lysates (25 μg) were performed with Mini Protean Systems by Bio-Rad Laboratories and run in Bio-Rad Readymade Pre-Cast Gels (4-20% Tris-HCl gels). Proteins were transferred onto PVDF membrane (Bio-Rad), and immunoblotted with anti-Bmi-1-clone F6 antibody (Millipore; Temecula, Calif.) and Caspases 3, 7, 8 and 9 (Cell Signaling Technology; Danvers, Mass.).
(In general: In western blotting, separated proteins are transferred to a membrane and probed.)

Series [10] concerns Jeko, Mino and Rec1 MCL-cell lines. Description: Cell Cycle Analysis (propidium iodide flow cytometry). The class given is cell-based. The settings on record: MCL cells, 60 nM, FIG. 3. As for the experimental part: Cell cycle analysis was performed for MCL-cell lines treated with Bmi-1 inhibitor Compounds 1 (data not shown), 14 and 49 (data not shown). For example, Jeko, Mino and Red cells treated with BMI-1 inhibitor Compound 14 at concentrations of 60 nM, 75 nM, and 60 nM, respectively were cultured in T-25 flasks for 24, 48 and 72 hours in 37° C. About 1×10^6 cells were harvested, washed with PBS, fixed with ice-cold 70% ethanol, and treated with 1 mg/ml RNase A (Invitrogen; Carlsbad, Calif.). Cells were then stained with 5 μL 1 mg/mL Propidium Iodide (Sigma-Aldrich; St. Louis, Mo.), incubated in ice for at least 1 hr, and the cell cycle profile was determined using flow cytometry analysis. The same protocol was followed for cell cycle analysis of Jeko, Mino, and Rec1 cell lines treated with Compounds 1 (data not shown) and 49 (data not shown).
(Flow cytometry measures light scatter and fluorescence of single cells or particles in a stream.)

In series [11] the test system is Caspases 3, 7, 8, 9 and PARP. The series is described as follows: Western Blot Analysis: activation of apoptosis proteins in MCL cell lines. The class given is cell-based. The settings on record: MCL cells cultured for 72 hrs, FIG. 2. The protocol: as §3

With `COc1cc(Br)c(Nc2nc(-c3c(C)nc4ncccn34)cs2)c(Br)c1` [Cpd 1, N-(2,6-dibromo-4-methoxyphenyl)-4-(2-methylimidazo[1,2-a]pyrimidin-3-yl)thiazol-2-amine], the EC50 was 420 nM in series [1], 220 nM in series [2], 374 nM in series [4] and 321 nM in [5]. In series [3], the “reduced intratumor Bmi-1 protein levels” value came out at 67%. The “toxicity within treated mice” value in series [6] (over the 10 day experiment) is reported as “no toxicity was observed”. The compound also gave an inhibited tumor growth in [6] (subcutaneously at 30 or 60 mg/kg/day for ten days, compared to vehicle-treated control groups) of 35%. Also, in [7], the “p27 levels within treated tumors” value is “no changes”.

Regarding `COc1ccc(Nc2nc(-c3c(C)nc4ncccn34)cs2)cc1` [Cpd 14, N-(4-methoxyphenyl)-4-(2-methylimidazo[1,2-a]pyrimidin-3-yl)thiazol-2-amine], the EC50 in series [1] is 8 nM; in series [2] it was below 4 nM. Moreover, the “Cell Concentration (×10^6)” value is recorded as 1.83 ± 0.03 ×10^6 in series [8] (0.004 μM); 1.63 ± 0.05 ×10^6 in series [8] (0.037 μM); 0.07 ± 0.01 ×10^6 in series [8] (0.11 μM); 0.02 ± 0.00 ×10^6 in [8] (0.33 μM); 0.02 ± 0.00 ×10^6 in series [8] (1 μM); 0.03 ± 0.00 ×10^6 in [8] (3 μM). In [8] (0.004 μM, read-out: Cell Viability (%)), the viability at 0.004 µM stood at 74.9 ± 0.55%. In [8] (0.037 μM, read-out: Cell Viability (%)), the viability at 0.037 µM was found to be 69.4 ± 1.63%. For the same compound, in [8] (0.11 μM, read-out: Cell Viability (%)), the viability at 0.11 µM was 6.5 ± 0.55%. In series [8] (0.33 μM, read-out: Cell Viability (%)), the viability at 0.33 µM turned out to be 1.9 ± 0.31%. The viability at 1 µM in series [8] (1 μM, read-out: Cell Viability (%)) turned out to be 1.6 ± 0.26%. Besides, the viability at 3 µM in series [8] (3 μM, read-out: Cell Viability (%)) was 2.5 ± 0.35%. Also, in series [9], the Bmi-1 levels result was “time dependant decrease”. In series [10] (at 48 and 72 hrs), the DNA content entry is reported as “increase in DNA content”. For the same compound, the cell cycle profile entry in series [10] (at 24 hrs) is reported as “G2/M block”. For the same compound, the “activation of Caspase-9 and PARP” value in [11] was “activation of Caspase-9 and PARP”.

The EC50 is the concentration at which the effect is half-maximal. High values mean weaker potency, low ones greater potency. One may read the viability as a per cent measure of how many cells are alive, often set against a control.

Values taken from US8680113B2, “BMI-1 protein expression modulators” (PTC Therapeutics, Inc., priority 2008, dated 2014).
